These results are taken from ChEMBL document CHEMBL1137952, “Fertilin beta peptidic liposomes inhibit fertilization by steric blockage” (Bioorg Med Chem Lett, 2004).

pIC50: −log10 of the molar value. Calls of active or inactive are those of the source. No cut-off for these calls is given here. Non-standard residues stand in square brackets, D forms with d. Residues, ends and D or L forms follow the SMILES beside them. ξ: configuration not given here. *: point of attachment. Myristoyl = CCCCCCCCCCCCCC(=O)*; Dap = NC[C@H](N)C(=O)O; ξDap = NCC(N)C(=O)O; GABA = NCCCC(=O)O

For assay [1], the system named is Liposome. Briefly: Inhibition of fertilization by POPC (40 or 400 nm), measured by average number of sperm fused / egg (FI); No inhibition uM. It counts as functional, Mus musculus.
Assay [2] relates to Liposome. Briefly: Inhibition of fertilization by POPC (40 or 400 nm), measured by number of zona-free eggs fertilized (FR); No inhibition. It counts as functional, subcellular, Mus musculus.
Assay [3] concerns Liposome. Briefly: Inhibition of fertilization by POPC (40 or 400 nm), measured by number of zona-free eggs fertilized (FR); No inhibition uM. The assay is classed as functional, subcellular, Mus musculus.
The test system of assay [4] is Liposome. Briefly: Maximal inhibition of fertilization by POPC (40 or 400 nm); No inhibition. It counts as functional. The following applies: Mus musculus.
Assay [5] relates to Liposome. Briefly: Inhibition of fertilization by fertilin beta peptide, measured by average number of sperm fused / egg (FI). The assay is classed as functional, Mus musculus.
The test system of assay [6] is Liposome. Briefly: Inhibition of fertilization by fertilin beta peptide, measured by number of zona-free eggs fertilized (FR). The assay is classed as functional, subcellular, Mus musculus.
The subject of assay [7] is Liposome. Description: Maximal inhibition of fertilization by fertilin beta peptide. It counts as functional, subcellular. The following applies: Mus musculus.
For assay [8], the system named is Liposome. Description: Inhibition of fertilization by fertilin beta peptide (0.013 mol%) with 40 nm liposome, measured by number of zona-free eggs fertilized (FR); No inhibition up to 125 nm peptide. It counts as functional, Mus musculus.
Assay [9] deals with Liposome. Description: Inhibition of fertilization by fertilin beta peptide (0.1 mol%) with 40 nm liposome, measured by average number of sperm fused per egg (FI). It counts as functional, subcellular, Mus musculus.
In assay [10] the test system is Liposome. Briefly: Inhibition of fertilization by fertilin beta peptide (0.1 mol%) with 40 nm liposome, measured by number of zona-free eggs fertilized (FR). The assay is classed as functional, subcellular, Mus musculus.
Assay [11] relates to Liposome. Description: Inhibition of fertilization by fertilin beta peptide (0.5 mol%) with 40 nm liposome, measured by average number of sperm fused per egg (FI). It counts as functional, subcellular, Mus musculus.
The test system of assay [12] is Liposome. Briefly: Inhibition of fertilization by fertilin beta peptide (0.5 mol%) with 40 nm liposome, measured by number of zona-free eggs fertilized (FR). The assay is classed as functional, subcellular, Mus musculus.
Assay [13] deals with Liposome. Description: Inhibition of fertilization by fertilin beta peptide (0.5 mol%) with 400 nm liposome, measured by average number of sperm fused per egg (FI). The assay is classed as functional, subcellular, Mus musculus.
The subject of assay [14] is Liposome. Briefly: Inhibition of fertilization by fertilin beta peptide (0.013 mol%) with 40 nm liposome, measured by average number of sperm fused per egg (FI); No inhibition up to 125 nm peptide. The assay is classed as functional, Mus musculus.
For assay [15], the system named is Liposome. Briefly: Inhibition of fertilization by fertilin beta peptide (0.013 mol%) with 40 nm liposome, measured by number of zona-free eggs fertilized (FR); No inhibition. The assay is classed as functional, subcellular, Mus musculus.
In assay [16] the test system is Liposome. Description: Inhibition of fertilization by fertilin beta peptide (0.5 mol%) with 400 nm liposome, measured by number of zona-free eggs fertilized (FR). It counts as functional, subcellular, Mus musculus.
In assay [17] the test system is Liposome. Briefly: Inhibition of fertilization by fertilin beta peptide (1 mol%) with 40 nm liposome, measured by average number of sperm fused per egg (FI). It counts as functional, subcellular, Mus musculus.
In assay [18] the test system is Liposome. Briefly: Inhibition of fertilization by fertilin beta peptide (1 mol%) with 40 nm liposome, measured by number of zona-free eggs fertilized (FR). It counts as functional, subcellular, Mus musculus.
Assay [19] has as its system Liposome. Description: Inhibition of fertilization by fertilin beta peptide (5 mol%) with 40 nm liposome, measured by average number of sperm fused per egg (FI). The assay is classed as functional, subcellular, Mus musculus.
Assay [20] has as its system Liposome. Briefly: Inhibition of fertilization by fertilin beta peptide (5 mol%) with 40 nm liposome, measured by number of zona-free eggs fertilized (FR). The assay is classed as functional, subcellular, Mus musculus.
For assay [21], the system named is Liposome. Briefly: Maximal inhibition of fertilization by fertilin beta peptide (0.5 mol%) with 40 nm liposome. It counts as functional, subcellular. The following applies: Mus musculus.
The test system of assay [22] is Liposome. Briefly: Maximal inhibition of fertilization by fertilin beta peptide (1 mol%) with 40 nm liposome. It counts as functional, subcellular. The conditions noted are these: Mus musculus.
Assay [23] has as its system Liposome. Briefly: Inhibition of fertilization by fertilin beta peptide (1 mol%) with 40 nm liposome, measured by average number of sperm fused /egg (FI); No inhibition uM peptide. The assay is classed as functional, subcellular, Mus musculus.
In assay [24] the test system is Liposome. Briefly: Inhibition of fertilization by fertilin beta peptide (1 mol%) with 40 nm liposome, measured by number of zona-free eggs fertilized (FR); No inhibition. The assay is classed as functional, subcellular, Mus musculus.
For assay [25], the system named is Liposome. Briefly: Inhibition of fertilization by fertilin beta peptide (1 mol%) with 40 nm liposome, measured by number of zona-free eggs fertilized (FR); No inhibition uM peptide. It counts as functional, subcellular, Mus musculus.
Assay [26] has as its system Liposome. Briefly: Maximal inhibition of fertilization by fertilin beta peptide (1 mol%) with 40 nm liposome; No inhibition. The assay is classed as functional, subcellular. The following applies: Mus musculus.

For `CCCCCCCC/C=C\CCCCCCCC(=O)OC(COC(=O)CCCCCCCCCCCCCCC)COP(=O)([O-])OCC[N+](C)(C)C` (stereo not given), the IC50 entry in the assay with Liposome [1], with Liposome [2] and with Liposome [3] was “Not Active” each time. Also, the Max inhibition entry in the assay with Liposome [4] was “inactive”.

As to `CC(=O)NC[C@H](NC(C)=O)C(=O)NCCCC(=O)N[C@@H](C)C(=O)N[C@@H](CCC(N)=O)C(=O)N[C@@H](CC(=O)O)C(=O)N[C@@H](CCC(=O)O)C(=O)N[C@@H](CS)C(=O)N[C@@H](CC(=O)O)C(=O)N[C@H](C(=O)N[C@H](C(=O)N[C@@H](CCC(=O)O)C(=O)N[C@@H](Cc1ccc(O)cc1)C(N)=O)[C@@H](C)O)C(C)C` (Ac-[Dap](Ac)[GABA]AQDECDVTEY-NH2), the pIC50 with Liposome [5] is 3.28; in the assay on Liposome [6], 3.30. Moreover, the Max inhibition in the assay on Liposome [7] is 71%.

In the case of `CCCCCCCCCCCCCC(=O)NCC(NC(=O)CCCCCCCCCCCCC)C(=O)NCCCC(=O)N[C@@H](C)C(=O)N[C@@H](CCC(N)=O)C(=O)N[C@@H](CC(=O)O)C(=O)N[C@@H](CCC(=O)O)C(=O)N[C@@H](CS)C(=O)N[C@@H](CC(=O)O)C(=O)N[C@H](C(=O)N[C@H](C(=O)N[C@@H](CCC(=O)O)C(=O)N[C@@H](Cc1ccc(O)cc1)C(N)=O)[C@@H](C)O)C(C)C` (stereo not given in full) (Myristoyl-[ξDap](Myristoyl)[GABA]AQDECDVTEY-NH2), the IC50 entry is recorded as “Not Active” in the assay with Liposome [8]; 2800000000000 liposomes ml-1 in the assay on Liposome [12]; “Not Active” in the assay with Liposome [14]; “Not Active” in the assay with Liposome [15]; 59000000000 liposomes ml-1 in the assay with Liposome [16]; 11000000000000 liposomes ml-1 with Liposome [18]. The IC50 with Liposome [20] is 4200000000000 liposomes ml-1. In addition, the pIC50 with Liposome [9] is 6.30; with Liposome [10], 6.30; with Liposome [11], 6.30; in the assay with Liposome [12] (read-out: IC50), 6.47; with Liposome [13], 6.04; in the assay on Liposome [16] (read-out: IC50), 6.12. The negative-log IC50 (pIC50) in the assay on Liposome [17] is 5.62; in the assay on Liposome [18] (read-out: IC50), 5.60; in the assay with Liposome [19], 5.30; in the assay with Liposome [20] (read-out: IC50), 5.30. Further, the Max inhibition came to 93% in the assay with Liposome [21] and 97% in the assay on Liposome [22].

Consider `CCCCCCCCCCCCCC(=O)NCC(NC(=O)CCCCCCCCCCCCC)C(=O)NCCCC(=O)N[C@@H](CC(=O)O)C(=O)N[C@@H](Cc1ccc(O)cc1)C(=O)N[C@@H](CCC(=O)O)C(=O)N[C@H](C(=O)N[C@@H](CCC(=O)O)C(=O)N[C@@H](CCC(N)=O)C(=O)N[C@@H](C)C(=O)N[C@@H](CS)C(=O)N[C@H](C(=O)N[C@@H](CC(N)=O)C(=O)O)[C@@H](C)O)C(C)C` (stereo not given in full) (Myristoyl-[ξDap](Myristoyl)[GABA]DYEVEQACTN-OH), for which the IC50 result with Liposome [23], in the assay on Liposome [24] and in the assay with Liposome [25] was “Not Active” throughout. Further, in the assay on Liposome [26], the Max inhibition entry is “inactive”.
